Test: hygroscopicity of the salts
Type: physicochemical
Conditions: isolated solid

## CCC(=O)O[C@H](CC(=O)O)C[N+](C)(C)C [Example 1, Propionyl L-carnitine Pamoate]
  hygroscopicity: non-hygroscopic

## CC(=O)O[C@H](CC(=O)O)C[N+](C)(C)C [Example 3, Acetyl L-carnitine Pamoate]
  hygroscopicity: non-hygroscopic

— US6465515B2, “Solid compositions suitable for oral administration containing non-hydroscopic salts of L-carnitine and alkanoyl L-carnitines” (Sigma-Tau Industrie Farmaceutiche Riunite S.p.A., priority 1998, dated 2002)
